Reference: patent US20190374627A1, “TARGET PEPTIDES FOR CANCER THERAPY AND DIAGNOSTICS” (priority 2016, published 2019)
Square brackets hold non-standard residues; d marks the D form. Ends that are not written are not given here. Met(O) = CS(=O)CC[C@H](N)C(=O)O; pS = N[C@@H](COP(=O)(O)O)C(=O)O

Columns and labels:
[1] = system: expanded TIL / IHL cultures; assay: ICS for MHC-I-pP reactivity of liver-derived lymphocyte cultures after unspecific rapid expansion protocol (REP); type: cell-based, human
CD8^+ T cells (PBMCs) = assay: Intracellular cytokine staining (ICS) of PBMCs after 7 days of stimulation with MHC-I-pP (healthy donors, HH patients); type: cell-based, human; conditions: for Reactive CD8^+ T cell population, HH2: HH patient HH2; for Reactive CD8^+ T cell population, HH3: HH patient HH3; for Reactive CD8^+ T cell population, HH6: HH patient HH6; for Reactive CD8^+ T cell population, HH8: HH patient HH8; for Reactive CD8^+ T cell population, HD1: Healthy donor HD1; for Reactive CD8^+ T cell population, HD4: Healthy donor HD4; for Reactive CD8^+ T cell population, HD5: Healthy donor HD5
Description: From this, CD8^+ T cell responses against newly identified MHC class I-associated phosphopeptides in healthy individuals and patients with chronic liver disease were investigated. Twenty-one of the newly identified HCC-associated HLA-A*0201-restricted phosphopeptides were selected (see Table 17) for further immunological testing in HLA-A*0201 positive patients. MHC-I-pP-specific cytotoxic CD8^+ T cell responses (ppCTL) were assessed using intracellular cytokine staining (ICS) and several cytokines and surface markers were assessed in parallel. After 7 days of stimulation with the respective MHC-I-pP and no other cytokines, CD3- and CD8-expressing T cells were stained for at least two different cytokines (IFN-γ, TNF-α) and when required CD107a expression as a marker for their cytotoxic potential.
First, peripheral blood mononuclear cells (PBMCs) from healthy donors and patients with hereditary hemochromatosis (HH) were analyzed. HH is a chronic liver disease characterized by excessive intestinal absorption of dietary iron resulting in a pathological deposition of iron in the liver. PBMCs or lymphocytes from liver tissue were extracted and specifically stimulated with (phospho-) peptides for 7 days before intracellular cytokine staining (ICS). Doublets and dead cells, using a fixable viability dye, were excluded. Lymphocytes were gated on CD3^+ and CD8^+ double positive cells and were analysed for expression of IFNγ, TNFα-, and CD107a.

[2] = system: unexpanded lymphocyte cultures (CD8^+ T cells); assay: ICS for MHC-I-pP reactivity of lymphocyte cultures without expansion (Table 23, No Expansion)
[3] = system: expanded lymphocyte cultures from deceased donor livers, cirrhotic livers and HCC; assay: ICS for MHC-I-pP reactivity of liver-derived lymphocyte cultures after phosphopeptide-specific expansion; type: cell-based, human; conditions: for ppCTL response, Deceased Donor Liver Do 2 / ppCTL response, Deceased Donor Liver Do 3 / ppCTL response, Deceased Donor Liver Do 4 / ppCTL response, Deceased Donor Liver Do 6 / ppCTL response, End-stage Liver Cirrhosis IHL 11 / ppCTL response, End-stage Liver Cirrhosis IHL 12 / ppCTL response, End-stage Liver Cirrhosis IHL 13 / ppCTL response, End-stage Liver Cirrhosis IHL 15 / ppCTL response, HCC Distal HCC 1 / ppCTL response, HCC Tumor HCC 1 / ppCTL response, HCC Distal HCC 4 / ppCTL response, HCC Distal HCC 9 / ppCTL response, HCC Tumor HCC 9 / ppCTL response, HCC Distal HCC 12: pP-specifically expanded culture; for ppCTL response, HCC Distal HCC 1: HCC 1 Distal; for ppCTL response, HCC Tumor HCC 1: HCC 1 Tumor; for ppCTL response, HCC Distal HCC 4: HCC 4 Distal; for ppCTL response, HCC Distal HCC 9: HCC 9 Distal; for ppCTL response, HCC Tumor HCC 9: HCC 9 Tumor; for ppCTL response, HCC Distal HCC 12: HCC 12 Distal

Row | Substance | Reactive CD8^+ T cells, Non-specific Expansion, Do2 [1] | Reactive CD8^+ T cells, Non-specific Expansion, Do4 [1] | Reactive CD8^+ T cells, Non-specific Expansion, HH6 [1] | Reactive CD8^+ T cell population, HH2 (CD8^+ T cells (PBMCs)) | Reactive CD8^+ T cell population, HH3 (CD8^+ T cells (PBMCs)) | Reactive CD8^+ T cell population, HH6 (CD8^+ T cells (PBMCs)) | Reactive CD8^+ T cell population, HH8 (CD8^+ T cells (PBMCs)) | Reactive CD8^+ T cell population, HD1 (CD8^+ T cells (PBMCs)) | Reactive CD8^+ T cell population, HD4 (CD8^+ T cells (PBMCs)) | Reactive CD8^+ T cell population, HD5 (CD8^+ T cells (PBMCs)) | Reactive CD8^+ T cells, No Expansion, HH6 [2] | Reactive CD8^+ T cells, pP-specific Expansion, Do2 [3] | Reactive CD8^+ T cells, pP-specific Expansion, Do4 [3] | Reactive CD8^+ T cells, pP-specific Expansion, HH6 [3] | ppCTL response, Deceased Donor Liver Do 2 [3] | ppCTL response, Deceased Donor Liver Do 3 [3] | ppCTL response, Deceased Donor Liver Do 4 [3] | ppCTL response, Deceased Donor Liver Do 6 [3] | ppCTL response, End-stage Liver Cirrhosis IHL 11 [3] | ppCTL response, End-stage Liver Cirrhosis IHL 12 [3] | also measured
1 | KIAsEIAQL: CASKIN2 phosphopeptide, HLA-A*0201 (KIA[pS]EIAQL; listed as Homo sapiens) | 1 (0.25-2.5% reactive CD8^-+ T cells) | 0 (<0.25% reactive CD8^-+ T cells) | 1 (0.25-2.5% reactive CD8^-+ T cells) | 0 (<0.25% reactive CD8^-+ T cells) | 0 (<0.25% reactive CD8^-+ T cells) | 1 (0.25-2.5% reactive CD8^-+ T cells) | 0 (<0.25% reactive CD8^-+ T cells) | 0 (<0.25% reactive CD8^-+ T cells) | 0 (<0.25% reactive CD8^-+ T cells) | 0 (<0.25% reactive CD8^-+ T cells) | 1 (0.25-2.5% reactive CD8^-+ T cells) | 0 (<0.25% reactive CD8^-+ T cells) | 0 (<0.25% reactive CD8^-+ T cells) | 0 (<0.25% reactive CD8^-+ T cells) | 0 (<0.25% reactive CD8-+ T cells) | 0 (<0.25% reactive CD8-+ T cells) | 1 (0.25-2.5% reactive CD8-+ T cells) | 1 (0.25-2.5% reactive CD8-+ T cells) | 0 (<0.25% reactive CD8-+ T cells) | 0 (<0.25% reactive CD8-+ T cells) | ppCTL response, End-stage Liver Cirrhosis IHL 13 [3]: 0 (<0.25% reactive CD8-+ T cells); ppCTL response, End-stage Liver Cirrhosis IHL 15 [3]: 0 (<0.25% reactive CD8-+ T cells); ppCTL response, HCC Distal HCC 1 [3]: 0 (<0.25% reactive CD8-+ T cells); ppCTL response, HCC Tumor HCC 1 [3]: 0 (<0.25% reactive CD8-+ T cells); ppCTL response, HCC Distal HCC 4 [3]: 0 (<0.25% reactive CD8-+ T cells); ppCTL response, HCC Distal HCC 9 [3]: 0 (<0.25% reactive CD8-+ T cells); ppCTL response, HCC Tumor HCC 9 [3]: 0 (<0.25% reactive CD8-+ T cells); ppCTL response, HCC Distal HCC 12 [3]: 0 (<0.25% reactive CD8-+ T cells)
2 | NLVPMVATV (Cytomegalovirus) [reference compound] | 0 (<0.25% reactive CD8^-+ T cells) | 5 (10-20% reactive CD8^-+ T cells) | 1 (0.25-2.5% reactive CD8^-+ T cells) | 4 (7.5-10% reactive CD8^-+ T cells) | 0 (<0.25% reactive CD8^-+ T cells) | 1 (0.25-2.5% reactive CD8^-+ T cells) | 1 (0.25-2.5% reactive CD8^-+ T cells) | 0 (<0.25% reactive CD8^-+ T cells) | 0 (<0.25% reactive CD8^-+ T cells) | 0 (<0.25% reactive CD8^-+ T cells) | 1 (0.25-2.5% reactive CD8^-+ T cells) | 3 (5-7.5% reactive CD8^-+ T cells) | 2 (2.5-5.0% reactive CD8^-+ T cells) | 3 (5-7.5% reactive CD8^-+ T cells) | 3 (5-7.5% reactive CD8-+ T cells) | 0 (<0.25% reactive CD8-+ T cells) | 2 (2.5-5.0% reactive CD8-+ T cells) | 0 (<0.25% reactive CD8-+ T cells) | 0 (<0.25% reactive CD8-+ T cells) | 0 (<0.25% reactive CD8-+ T cells) | Reactive CD8^+ T cell population, HH10 (CD8^+ T cells (PBMCs); HH patient HH10): 3 (5-7.5% reactive CD8^-+ T cells); Reactive CD8^+ T cell population, HH11 (CD8^+ T cells (PBMCs); HH patient HH11): 0 (<0.25% reactive CD8^-+ T cells); Reactive CD8^+ T cell population, HD2 (CD8^+ T cells (PBMCs); Healthy donor HD2): 0 (<0.25% reactive CD8^-+ T cells); Reactive CD8^+ T cell population, HD3 (CD8^+ T cells (PBMCs); Healthy donor HD3): 0 (<0.25% reactive CD8^-+ T cells); Reactive CD8^+ T cells, No Expansion, Do4 ([2]; Do4): 2 (2.5-5.0% reactive CD8^-+ T cells); ppCTL response, End-stage Liver Cirrhosis IHL 13 [3]: 0 (<0.25% reactive CD8-+ T cells); ppCTL response, End-stage Liver Cirrhosis IHL 15 [3]: 0 (<0.25% reactive CD8-+ T cells); ppCTL response, HCC Distal HCC 1 [3]: 1 (0.25-2.5% reactive CD8-+ T cells); ppCTL response, HCC Tumor HCC 1 [3]: 0 (<0.25% reactive CD8-+ T cells); ppCTL response, HCC Distal HCC 4 [3]: 0 (<0.25% reactive CD8-+ T cells); ppCTL response, HCC Distal HCC 9 [3]: 0 (<0.25% reactive CD8-+ T cells); ppCTL response, HCC Tumor HCC 9 [3]: 0 (<0.25% reactive CD8-+ T cells); ppCTL response, HCC Distal HCC 12 [3]: 0 (<0.25% reactive CD8-+ T cells)
3 | PmVTLsLNL (P[Met(O)]VTL[pS]LNL; listed as Homo sapiens) | 0 (<0.25% reactive CD8^-+ T cells) | 1 (0.25-2.5% reactive CD8^-+ T cells) | 0 (<0.25% reactive CD8^-+ T cells) | 0 (<0.25% reactive CD8^-+ T cells) | 0 (<0.25% reactive CD8^-+ T cells) | 0 (<0.25% reactive CD8^-+ T cells) | 0 (<0.25% reactive CD8^-+ T cells) | 0 (<0.25% reactive CD8^-+ T cells) | 0 (<0.25% reactive CD8^-+ T cells) | 0 (<0.25% reactive CD8^-+ T cells) | 0 (<0.25% reactive CD8^-+ T cells) | 2 (2.5-5.0% reactive CD8^-+ T cells) | 1 (0.25-2.5% reactive CD8^-+ T cells) | 0 (<0.25% reactive CD8^-+ T cells) | 2 (2.5-5.0% reactive CD8-+ T cells) | 0 (<0.25% reactive CD8-+ T cells) | 2 (2.5-5.0% reactive CD8-+ T cells) | 1 (0.25-2.5% reactive CD8-+ T cells) | 0 (<0.25% reactive CD8-+ T cells) | 0 (<0.25% reactive CD8-+ T cells) | ppCTL response, End-stage Liver Cirrhosis IHL 13 [3]: 0 (<0.25% reactive CD8-+ T cells); ppCTL response, End-stage Liver Cirrhosis IHL 15 [3]: 0 (<0.25% reactive CD8-+ T cells); ppCTL response, HCC Distal HCC 1 [3]: 0 (<0.25% reactive CD8-+ T cells); ppCTL response, HCC Tumor HCC 1 [3]: 0 (<0.25% reactive CD8-+ T cells); ppCTL response, HCC Distal HCC 4 [3]: 0 (<0.25% reactive CD8-+ T cells); ppCTL response, HCC Distal HCC 9 [3]: 0 (<0.25% reactive CD8-+ T cells); ppCTL response, HCC Tumor HCC 9 [3]: 0 (<0.25% reactive CD8-+ T cells); ppCTL response, HCC Distal HCC 12 [3]: 0 (<0.25% reactive CD8-+ T cells)
4 | RLAsYLDRV: KRT18 phosphopeptide, HLA-A*0201 (RLA[pS]YLDRV; listed as Homo sapiens) | 0 (<0.25% reactive CD8^-+ T cells) | 0 (<0.25% reactive CD8^-+ T cells) | 1 (0.25-2.5% reactive CD8^-+ T cells) | 3 (5-7.5% reactive CD8^-+ T cells) | 0 (<0.25% reactive CD8^-+ T cells) | 0 (<0.25% reactive CD8^-+ T cells) | 0 (<0.25% reactive CD8^-+ T cells) | 0 (<0.25% reactive CD8^-+ T cells) | 0 (<0.25% reactive CD8^-+ T cells) | 0 (<0.25% reactive CD8^-+ T cells) | 0 (<0.25% reactive CD8^-+ T cells) | 0 (<0.25% reactive CD8^-+ T cells) | 0 (<0.25% reactive CD8^-+ T cells) | 0 (<0.25% reactive CD8^-+ T cells) | 0 (<0.25% reactive CD8-+ T cells) | 0 (<0.25% reactive CD8-+ T cells) | 0 (<0.25% reactive CD8-+ T cells) | 0 (<0.25% reactive CD8-+ T cells) | 0 (<0.25% reactive CD8-+ T cells) | 0 (<0.25% reactive CD8-+ T cells) | ppCTL response, End-stage Liver Cirrhosis IHL 13 [3]: 0 (<0.25% reactive CD8-+ T cells); ppCTL response, End-stage Liver Cirrhosis IHL 15 [3]: 0 (<0.25% reactive CD8-+ T cells); ppCTL response, HCC Distal HCC 1 [3]: 0 (<0.25% reactive CD8-+ T cells); ppCTL response, HCC Tumor HCC 1 [3]: 0 (<0.25% reactive CD8-+ T cells); ppCTL response, HCC Distal HCC 4 [3]: 0 (<0.25% reactive CD8-+ T cells); ppCTL response, HCC Distal HCC 9 [3]: 0 (<0.25% reactive CD8-+ T cells); ppCTL response, HCC Tumor HCC 9 [3]: 0 (<0.25% reactive CD8-+ T cells); ppCTL response, HCC Distal HCC 12 [3]: 0 (<0.25% reactive CD8-+ T cells)
